In patent publication US6908919B2, “Substituted polycyclic aryl and heteroaryl pyrazinones useful for selective inhibition of the coagulation cascade” (Pharmacia Corporation, priority 1999, dated 2005):
Where two headings read alike, the source gives them in different places.

Target: Human factor Xa (Homo sapiens, UniProt P00742)
Test: Xa Assay
Assay type: biochemical
Set-up: purchased Enzyme Research Laboratories, South Bend Ind

Sequence of Human factor Xa (P00742 41-179 limits assumed): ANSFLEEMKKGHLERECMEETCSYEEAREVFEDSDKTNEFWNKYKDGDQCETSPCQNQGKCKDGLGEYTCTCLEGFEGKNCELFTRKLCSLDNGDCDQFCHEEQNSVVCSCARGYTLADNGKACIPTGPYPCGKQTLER
Sequence of Human factor Xa (P00742 235-488 limits assumed): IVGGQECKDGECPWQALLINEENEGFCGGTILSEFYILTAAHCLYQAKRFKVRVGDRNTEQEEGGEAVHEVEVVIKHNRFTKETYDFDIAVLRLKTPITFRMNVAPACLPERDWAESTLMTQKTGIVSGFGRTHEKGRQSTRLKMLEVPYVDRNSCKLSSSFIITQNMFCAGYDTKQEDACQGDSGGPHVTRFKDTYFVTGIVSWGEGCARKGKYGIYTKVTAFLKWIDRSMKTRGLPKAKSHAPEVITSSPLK

SMILES: CCCNc1nc(Cl)c(-c2cccc(N)c2)n(CC(=O)NCc2ccc(C(=N)N)cc2F)c1=O [1543-35]
- % Inhibition Factor Xa (30 µM) (at 30 µM): 8%

SMILES: C[C@@H](C(=O)NCc1ccc(C(=N)N)cc1)n1c(-c2ccccc2)c(Cl)nc(NCc2ccccc2)c1=O [Example 1517-03]
- % Inhibition Factor Xa (30 µM) (at 30 µM inhibitor): 0%

SMILES: N=C(N)c1ccc(CNC(=O)Cn2c(-c3ccsc3)c(Cl)nc(NCCc3cccc(Cl)c3)c2=O)cc1 [Example 1517-19]
- % Inhibition Factor Xa (30 µM) (at 30 µM): 0%

SMILES: O=C(Cn1c(-c2ccc(Cl)cc2)c(Cl)nc(NCCN2CCOCC2)c1=O)NCCc1ccncc1 [Example E-0031]
- % Inhibition Factor Xa (100 µM) (inhibitor at 100 µM): 0%

SMILES: N=C(N)c1ccc(CNC(=O)Cn2c(-c3ccccc3)c(Cl)nc(NCc3cc(C(F)(F)F)cc(C(F)(F)F)c3)c2=O)cc1 [1507-40]
- % Inhibition Factor Xa (30 µM) (at 30 µM inhibitor): 11%

SMILES: N=C(N)c1ccc(CNC(=O)Cn2c(-c3cccc(Cl)c3)c(Cl)nc(NCCc3ccncc3)c2=O)cc1 [1471-29]
- % Inhibition Factor Xa (30 µM) (at 30 µM inhibitor): 21%

SMILES: CC(C)Nc1nc(Cl)c(-c2cccc(C(=O)O)c2)n(CC(=O)NCc2ccc(C(=N)N)cc2)c1=O [Example 65]
- % Inhibition Factor Xa (30 µM) (at 30 µM inhibitor): 12%

SMILES: N=C(N)c1ccc(CNC(=O)Cn2c(-c3cccc(Cl)c3)c(Cl)nc(NCCc3cccnc3)c2=O)cc1 [1471-32]
- % Inhibition Factor Xa (30 µM) (at 30 µM inhibitor): 25%

SMILES: CCc1c(Cl)nc(NCCc2cccnc2)c(=O)n1CC(=O)NCc1ccc(C(=N)N)cc1 [1471-64]
- % Inhibition Factor Xa (30 µM) (at 30 µM inhibitor): 2%

SMILES: N=C(N)c1ccc(CNC(=O)Cn2c(-c3ccccc3)c(Cl)nc(NCCc3ccccn3)c2=O)cc1 [1512-47]
- % Inhibition Factor Xa (30 µM) (at 30 µM inhibitor): 13%

SMILES: Cc1c(Cl)nc(NCCN2CCOCC2)c(=O)n1CC(=O)NCc1ccc(C(=N)N)cc1 [1471-4]
- % Inhibition Factor Xa (30 µM) (at 30 µM inhibitor): 0%

SMILES: N=C(N)c1ccc(CNC(=O)Cn2c(-c3cccc(N)c3)c(Cl)nc(NCCCO)c2=O)cc1 [1543-13]
- % Inhibition Factor Xa (30 µM) (at 30 µM): 12%

SMILES: N=C(N)c1ccc(CNC(=O)Cn2c(-c3ccccc3)c(Cl)nc(NCCCn3ccnc3)c2=O)cc1 [1507-05]
- % Inhibition Factor Xa (30 µM) (at 30 µM inhibitor): 10%

SMILES: CCCCNc1nc(Cl)c(-c2cccc(N)c2)n(CC(=O)NCc2ccc(C(=N)N)cc2F)c1=O [1543-36]
- % Inhibition Factor Xa (30 µM) (at 30 µM): 15%

SMILES: N=C(N)c1ccc(CNC(=O)Cn2c(-c3cccc(N)c3)c(Cl)nc(NCCN3CCCC3)c2=O)cc1 [1543-03]
- % Inhibition Factor Xa (30 µM) (at 30 µM): 34%

SMILES: Cc1cccc(-c2cnc(NCCc3ccccc3)c(=O)n2CC(=O)NCc2ccc(C(=N)N)cc2)c1 [Example 85]
- % Inhibition Factor Xa (30 µM) (at 30 µM inhibitor): 42% @ 30

SMILES: N=C(N)c1ccc(CNC(=O)Cn2c(-c3ccccc3)c(Cl)nc(NCCCN3CCCC3=O)c2=O)cc1 [1507-19]
- % Inhibition Factor Xa (30 µM) (at 30 µM inhibitor): 4%

SMILES: COc1ccc(-c2c(Cl)nc(NCCc3ccc(Cl)cc3)c(=O)n2CC(=O)NCc2ccc(C(=N)N)cc2)cc1 [1471-34]
- % Inhibition Factor Xa (30 µM) (at 30 µM inhibitor): 24%

SMILES: CC(C)Nc1nc(Cl)c(-c2cccc(N)c2)n(CC(=O)NCc2ccc(C(=N)N)c(F)c2)c1=O [Example 42]
- % Inhibition Factor Xa (30 µM) (at 30 µM inhibitor): 0%

SMILES: CC(C)(C)CCNc1nc(Cl)c(-c2ccccc2)n(CC(=O)NCc2ccc(C(=N)N)cc2)c1=O [Example 1517-41]
- % Inhibition Factor Xa (30 µM) (at 30 µM): 0%

SMILES: N=C(N)c1ccc(CNC(=O)Cn2c(-c3ccccc3)c(Cl)nc(NCCc3cccnc3)c2=O)cc1 [1471-16]
- % Inhibition Factor Xa (30 µM) (at 30 µM inhibitor): 23%

SMILES: N=C(N)c1ccc(CNC(=O)Cn2c(-c3cccc(N)c3)c(Cl)nc(NCCc3ccccc3)c2=O)cc1 [Example 86]
- % Inhibition Factor Xa (30 µM) (at 30 µM inhibitor): 26% @ 30

SMILES: N=C(N)c1ccc(CNC(=O)Cn2c(-c3c(Cl)cccc3Cl)c(Cl)nc(NC3CCC3)c2=O)cc1 [Example 1517-12]
- % Inhibition Factor Xa (30 µM) (at 30 µM): 0%

SMILES: N=C(N)c1ccc(CNC(=O)Cn2c(-c3ccc4c(c3)OCO4)c(Cl)nc(NCc3ccncc3)c2=O)cc1 [1471-43]
- % Inhibition Factor Xa (30 µM) (at 30 µM inhibitor): 18%

SMILES: N=C(N)c1ccc(CNC(=O)Cn2c(-c3ccccc3)c(Cl)nc(NCc3c(F)cccc3F)c2=O)cc1 [1512-43]
- % Inhibition Factor Xa (30 µM) (at 30 µM inhibitor): 9%

SMILES: N=C(N)c1ccc(CNC(=O)Cn2c(-c3ccccc3)c(Cl)nc(NC(c3ccccc3)c3ccccc3)c2=O)cc1 [1507-35]
- % Inhibition Factor Xa (30 µM) (at 30 µM inhibitor): 28%

SMILES: N=C(N)c1ccc(CNC(=O)Cn2c(-c3ccccc3)c(Cl)nc(NCCc3cccc(C(F)(F)F)c3)c2=O)cc1 [1512-41]
- % Inhibition Factor Xa (30 µM) (at 30 µM inhibitor): 4%

SMILES: CCCCNc1nc(Cl)c(-c2ccccc2)n(CC(=O)NCc2ccc(C(=N)N)cc2)c1=O [1512-14]
- % Inhibition Factor Xa (30 µM) (at 30 µM inhibitor): 7%

SMILES: O=C(Cn1c(-c2ccc(Cl)cc2)c(Cl)nc(NCCc2cccc(Cl)c2)c1=O)NCCc1ccncc1 [Example E-0027]
- % Inhibition Factor Xa (100 µM) (inhibitor at 100 µM): 0%

SMILES: N=C(N)c1ccc(CNC(=O)Cn2c(-c3cccc(N)c3)c(Cl)nc(NCCCn3ccnc3)c2=O)cc1 [1543-07]
- % Inhibition Factor Xa (30 µM) (at 30 µM): 19%

SMILES: C[C@H](C(=O)NCc1ccc(C(=N)N)cc1)n1c(-c2ccccc2)c(Cl)nc(NCCc2cccc(Cl)c2)c1=O [Example 1517-23]
- % Inhibition Factor Xa (30 µM) (at 30 µM): 0%

SMILES: CSCC(C(=O)NCc1ccc(C(=N)N)cc1)n1c(-c2ccccc2)c(Cl)nc(NCc2ccccc2)c1=O (centres unmarked) [Example 1517-04]
- % Inhibition Factor Xa (30 µM) (at 30 µM inhibitor): 0%

SMILES: N=C(N)c1ccc(CNC(=O)Cn2c(-c3ccccc3)c(Cl)nc(NCCc3ccc(Cl)cc3)c2=O)cc1 [1471-10]
- % Inhibition Factor Xa (30 µM) (at 30 µM inhibitor): 45%

SMILES: N=C(N)c1ccc(CNC(=O)Cn2c(-c3cccc(N)c3)c(Cl)nc(NC3CCCC3)c2=O)c(F)c1 [1543-34]
- % Inhibition Factor Xa (30 µM) (at 30 µM): 20%

SMILES: N=C(N)c1ccc(CNC(=O)Cn2c(-c3ccc(Cl)cc3)c(Cl)nc(NCCc3ccc(Cl)cc3)c2=O)cc1 [1471-18]
- % Inhibition Factor Xa (30 µM) (at 30 µM inhibitor): 26%

SMILES: N=C(N)c1ccc(CNC(=O)Cn2c(-c3cccc(N)c3)c(Cl)nc(NC3CCC3)c2=O)cc1F [Example 40]
- % Inhibition Factor Xa (30 µM) (at 30 µM inhibitor): 0%

SMILES: CN(C)CCNc1nc(Cl)c(-c2ccccc2)n(CC(=O)NCc2ccc(C(=N)N)cc2)c1=O [1512-15]
- % Inhibition Factor Xa (30 µM) (at 30 µM inhibitor): 6%

SMILES: O=C(Cn1c(-c2ccc(-c3ccccc3)cc2)c(Cl)nc(NCCc2cccc(Cl)c2)c1=O)NCCc1cccnc1 [Example E-0116]
- % Inhibition Factor Xa (100 µM): 4%

SMILES: CCc1c(Cl)nc(NCCc2ccccc2)c(=O)n1CC(=O)NCc1ccc(C(=N)N)cc1 [1471-63]
- % Inhibition Factor Xa (30 µM) (at 30 µM inhibitor): 2%

SMILES: N=C(N)c1ccc(CNC(=O)Cn2c(-c3cccc(N)c3)c(Cl)nc(NC3CCC3)c2=O)cc1 [Example 90]
- % Inhibition Factor Xa (30 µM) (at 30 µM inhibitor): 16% @ 30

SMILES: N=C(N)c1ccc(CNC(=O)Cn2c(-c3ccccc3)c(Cl)nc(NCc3ccccc3)c2=O)cc1 [1471-9]
- % Inhibition Factor Xa (30 µM) (at 30 µM inhibitor): 29%

SMILES: N=C(N)c1ccc(CNC(=O)Cn2c(-c3ccc4ccccc4c3)c(Cl)nc(NCCc3ccccc3)c2=O)cc1 [Example 82]
- % Inhibition Factor Xa (30 µM) (at 30 µM inhibitor): 32% @ 30

SMILES: N=C(N)c1ccc(CNC(=O)Cn2c(-c3ccccc3)c(Cl)nc(NCCCCc3ccccc3)c2=O)cc1 [1507-43]
- % Inhibition Factor Xa (30 µM) (at 30 µM inhibitor): 21%

SMILES: CC(C)Nc1nc(Cl)c(-c2cc(N)ccc2F)n(CC(=O)NCc2ccc(C(=N)N)cc2F)c1=O [Example 73]
- % Inhibition Factor Xa (30 µM) (at 30 µM inhibitor): 0%

SMILES: CC(C)Nc1nc(Cl)c(-c2cccnc2)n(CC(=O)NCc2ccc(C(=N)N)cc2)c1=O [Example 75]
- % Inhibition Factor Xa (30 µM) (at 30 µM inhibitor): 9%

SMILES: CC(C)N(C)c1nc(Cl)c(-c2ccccc2)n(CC(=O)NCc2ccc(C(=N)N)cc2)c1=O [Example 1517-31]
- % Inhibition Factor Xa (30 µM) (at 30 µM): 0%

SMILES: N=C(N)c1ccc(CNC(=O)Cn2c(-c3ccccc3)c(Cl)nc(NCCc3ccncc3)c2=O)cc1 [1471-13]
- % Inhibition Factor Xa (30 µM) (at 30 µM inhibitor): 0%

SMILES: N=C(N)c1ccc(CNC(=O)Cn2c(-c3ccccc3)c(Cl)nc(NCc3cc(C(F)(F)F)ccc3F)c2=O)cc1 [1512-27]
- % Inhibition Factor Xa (30 µM) (at 30 µM inhibitor): 3%

SMILES: Cc1c(Cl)nc(NCCc2ccncc2)c(=O)n1CC(=O)NCc1ccc(C(=N)N)cc1 [1471-5]
- % Inhibition Factor Xa (30 µM) (at 30 µM inhibitor): 12%

SMILES: CCc1c(Cl)nc(NCCc2ccncc2)c(=O)n1CC(=O)NCc1ccc(C(=N)N)cc1 [1471-61]
- % Inhibition Factor Xa (30 µM) (at 30 µM inhibitor): 0%

SMILES: N=C(N)c1ccc(CNC(=O)Cn2c(-c3cccc(Cl)c3)c(Cl)nc(NCc3ccncc3)c2=O)cc1 [1471-27]
- % Inhibition Factor Xa (30 µM) (at 30 µM inhibitor): 16%

SMILES: N=C(N)c1ccc(CNC(=O)Cn2c(-c3ccccc3)c(Cl)nc(NC3CCS(=O)(=O)C3)c2=O)cc1 (centres unmarked) [1512-19]
- % Inhibition Factor Xa (30 µM) (at 30 µM inhibitor): 3%

SMILES: N=C(N)c1ccc(CNC(=O)Cn2c(-c3ccccc3)c(Cl)nc(NC3CCCCC3)c2=O)cc1 [Example 1517-25]
- % Inhibition Factor Xa (30 µM) (at 30 µM): 0%

SMILES: N=C(N)c1ccc(CNC(=O)Cn2c(-c3ccccc3)c(Cl)nc(NCc3cc(Cl)ccc3Cl)c2=O)cc1 [1512-35]
- % Inhibition Factor Xa (30 µM) (at 30 µM inhibitor): 4%

SMILES: N=C(N)c1ccc(CNC(=O)Cn2c(-c3cccc(N)c3)c(Cl)nc(NC3CC3)c2=O)c(F)c1 [1543-33]
- % Inhibition Factor Xa (30 µM) (at 30 µM): 14%

SMILES: N=C(N)c1ccc(CNC(=O)Cn2c(-c3ccccc3)c(Cl)nc(NCCC3=CCCCC3)c2=O)cc1 [1507-17]
- % Inhibition Factor Xa (30 µM) (at 30 µM inhibitor): 16%

SMILES: N=C(N)c1ccc(CNC(=O)Cn2c(-c3ccc4c(c3)OCO4)c(Cl)nc(NCCc3cccnc3)c2=O)cc1 [1471-48]
- % Inhibition Factor Xa (30 µM) (at 30 µM inhibitor): 17%

SMILES: CCCC(CCC)Nc1nc(Cl)c(-c2ccccc2)n(CC(=O)NCc2ccc(C(=N)N)cc2)c1=O [Example 1517-26]
- % Inhibition Factor Xa (30 µM) (at 30 µM): 0%

SMILES: N=C(N)c1ccc(CNC(=O)Cn2c(-c3cccc4ccccc34)c(Cl)nc(NCCc3ccccc3)c2=O)cc1 [Example 80]
- % Inhibition Factor Xa (30 µM) (at 30 µM inhibitor): 29% @ 30

SMILES: N=C(N)c1ccc(CNC(=O)Cn2c(-c3ccccc3O)c(Cl)nc(NC3CCC3)c2=O)cc1 [Example 66]
- % Inhibition Factor Xa (30 µM) (at 30 µM inhibitor): 0%

SMILES: N=C(N)c1ccc(CNC(=O)Cn2c(-c3ccccc3)c(Cl)nc(NC3CCS(=O)(=O)C3)c2=O)cc1 (centres unmarked) [1507-36]
- % Inhibition Factor Xa (30 µM) (at 30 µM inhibitor): 0%

SMILES: Cc1c(Cl)nc(NCCc2ccc(Cl)cc2)c(=O)n1CC(=O)NCc1ccc(C(=N)N)cc1 [1471-2]
- % Inhibition Factor Xa (30 µM) (at 30 µM inhibitor): 10%
